pIC50: −log10 of the molar value. Where a name gives a salt, the structure may show the parent alone. Read-outs that look alike come from different tables or passages of the source.
Experiments:
AGS cells = assay: Proliferation inhibitory activity on AGS tumor cell line containing KRAS G12D mutation (CellTiter-Glo, 72 hours); type: cell-based
Text: (§1) Test Example 1: Proliferation Inhibitory Activity on Ba/F3 KRAS-G12D, Ba/F3 KRAS-G12V Stably Transfected Cell Lines and AGS Tumor Cell Lines Containing KRAS G12D Mutations
(§2) To determine the proliferation inhibitory activity of the compounds in vitro on mouse pro-B cells Ba/F3 (Ba/F3 KRAS-G12D and Ba/F3 KRAS-G12V cells stably expressing KRAS G12D/V mutant proteins) and gastric cancer AGS cells expressing KRAS G12D mutant protein.
(§3) Cell sources. Ba/F3 KRAS-G12D and Ba/F3 KRAS-G12V were purchased from Kyinno Biotech (Beijing) Co., Ltd, Cat. No.: KC-1259 and KC-1261, respectively; AGS was purchased from Shanghai Bioleaf Biotech Co., Ltd.
(§4) Cells in the logarithmic growth phase were seeded in a 96-well plate (8000, 8000, 4000 cells/well, 90 μL/well for Ba/F3 KRAS-G12D, Ba/F3 KRAS-G12V, and AGS cells respectively), incubated at 37° C. for 1 day with 5% CO2, and then a gradient dilution of the test compound was added thereto (compounds 1 to 28 and comparative compounds). The details were as follows, the compound stock solution (10 mM) previously dissolved in DMSO was diluted to 10 gradient concentrations at a fold ratio (4 fold) and diluted to 10 fold of the target concentration in another 96-well plate with culture medium, and then 10 μL/well of the compound solution was added to the 96-well plate seeded with cells to reach the target concentration (10000, 2500, 625, 156, 39, 10, 2.5, 0.6, 0.15, 0.04 nM). Each concentration was provided with 3 duplicate wells and a blank control. After continued incubation at 37° C. and 5% CO2 for 72 hours, 50 μL of CellTiter-Glo*2.0 reagent (luciferase ATP bioluminescence detection reagent, purchased from Promega, Cat. No.: G9243) was added to each well, shaken for 2 minutes, and incubated at room temperature for 8 minutes, and then fluorescence luminescence intensity was detected (light collection time was 100 ms). The inhibitory rate of compounds with various concentrations on cell proliferation was calculated. Cell proliferation inhibition rate (%)=[(luminous intensitycontrol group containing cell culture medium for 72 hour−luminous intensitycompound group for 72 hour)/(luminous intensitycontrol group containing cell culture medium for 72 hours−luminous intensitycontrol group without cell culture medium for 72 hour)]×100%. GraphPad Prism 8.3 software was used to analyze the data, and nonlinear S-curve regression was used to fit the data to obtain a dose-effect curve, from which the IC50 value was calculated.

Ba/F3 KRAS-G12D cells = Ba/F3 KRAS-G12D cells (Homo sapiens, UniProt P01116, G12D, cells depend on it); assay: Proliferation inhibitory activity on Ba/F3 KRAS-G12D stably transfected cell line (CellTiter-Glo, 72 hours); type: cell-based, mouse; details: read-out: Ba/F3 KRAS-G12D IC50
Text: as §1, §2, §3, §4

Ba/F3 KRAS-G12V cells = Ba/F3 KRAS-G12V cells (Homo sapiens, UniProt P01116, G12V, cells depend on it); assay: Proliferation inhibitory activity on Ba/F3 KRAS-G12V stably transfected cell line (CellTiter-Glo, 72 hours); type: cell-based, mouse; details: read-out: Ba/F3 KRAS-G12V IC50
Text: as §1, §2, §3, §4

Sequence of Ba/F3 KRAS-G12V cells (P01116 whole entry G12V): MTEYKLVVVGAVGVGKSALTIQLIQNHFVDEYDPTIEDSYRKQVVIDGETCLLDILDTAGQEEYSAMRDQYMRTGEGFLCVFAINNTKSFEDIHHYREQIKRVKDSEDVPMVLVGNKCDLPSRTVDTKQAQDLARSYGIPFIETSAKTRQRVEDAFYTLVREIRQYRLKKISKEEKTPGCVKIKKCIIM
Sequence of Ba/F3 KRAS-G12D cells (P01116 whole entry G12D): as the sequence (P01116 whole entry G12V) above, with V12D counted along it

Row | pIC50 (AGS cells) | Compound | pIC50 (AGS cells; Homo sapiens) | GI50 (Ba/F3 KRAS-G12D cells) [µM] | GI50 (Ba/F3 KRAS-G12V cells) [µM]
1 | – | Cc1cc(N)nc(-c2nc(Cl)c3c(N4C[C@H]5CC[C@@H](C4)N5)nc(OC[C@@]45CCCN4C[C@H](F)C5)nc3c2F)c1C(F)(F)F [Compound 17, 6-(4-((1R,5S)-3,8-Diazabicyclo[3.2.1]octan-3-yl)-5-chloro-8-fluoro-2-(((2R,7aS)-2-fluorohexahydro-1H-pyrrolizin-7a-yl)methoxy)pyrido[4,3-d]pyrimidin-7-yl)-4-methyl-5-(trifluoromethyl)pyridin-2-amine bis(2,2,2-trifluoroacetate)] | 5.00 to 5.30 | 0.1 to 5 | 5 to 10
2 | – | C#Cc1c(F)ccc2cc(O)cc(-c3nc(F)c4c(N5C[C@H]6CC[C@@H](C5)N6)nc(OC[C@@]56CCCN5C[C@H](F)C6)nc4c3F)c12 [Compound 22, 4-(4-((1R,5S)-3,8-Diazabicyclo[3.2.1]octan-3-yl)-5,8-difluoro-2-(((2R,7aS)-2-fluorohexahydro-1H-pyrrolizin-7a-yl)methoxy)pyrido[4,3-d]pyrimidin-7-yl)-5-ethynyl-6-fluoronaphthalen-2-ol] | 7.80 | 0.002 | 5 to 10
3 | – | Oc1cc(-c2nc(Cl)c3c(N4C[C@H]5CC[C@@H](C4)N5)nc(OC[C@@]45CCCN4C[C@H](F)C5)nc3c2F)c2c(F)c(F)ccc2c1 [Compound 26, 4-(4-((1R,5S)-3,8-diazabicyclo[3.2.1]octan-3-yl)-5-chloro-8-fluoro-2-(((2R,7aS)-2-fluorohexahydro-1H-pyrrolizin-7a-yl)methoxy)pyrido[4,3-d]pyrimidin-7-yl)-5,6-difluoronaphthalen-2-ol] | 7.55 | 0.0017 | 5 to 10
4 | – | C#Cc1c(F)ccc2cc(O)cc(-c3ncc4c(N5[C@H]6CC[C@@H]5[C@@H](F)[C@H](N)C6)nc(OC[C@@]56CCCN5C[C@H](F)C6)nc4c3F)c12 [Compound 24, 4-4-(4-((1R,2S,3R,5S)-3-Amino-2-fluoro-8-azabicyclo[3.2.1]octan-8-yl)-8-fluoro-2-(((2R,7aS)-2-fluorohexahydro-1H-pyrrolizin-7a-yl)methoxy)pyrido[4,3-d]pyrimidin-7-yl)-5-ethynyl-6-fluoronaphthalen-2-ol] | 5.60 | 1.9 | 5 to 10
5 | 5.30 to 7.00 | C#Cc1c(F)ccc2cc(O)cc(-c3ncc4c(N5CCC(N)C(F)(F)C5)nc(OC[C@@]56CCCN5C[C@H](F)C6)nc4c3F)c12 (single isomer, unassigned) [Compound 20-P2] | – | 0.1 to 5 | 5 to 10
6 | – | C#Cc1c(F)ccc2cc(O)cc(-c3ncc4c(N5CCC(N)C(F)(F)C5)nc(OC[C@@]56CCCN5C[C@H](F)C6)nc4c3F)c12 (single isomer, unassigned) [Compound 20-P1] | 5.30 to 7.00 | ≤ 0.1 | 5 to 10
7 | – | C#Cc1c(F)ccc2cc(O)cc(-c3ncc4c(N5C[C@@H](N)CC(F)(F)C5)nc(OC[C@@]56CCCN5C[C@H](F)C6)nc4c3F)c12 [Compound 6-P2, 4-(4-((S)-5-amino-3,3-difluoropiperidin-1-yl)-8-fluoro-2-(((2R,7aS)-2-fluorotetrahydro-1H-pyrrolizin-7a(5H)-yl)methoxy)pyrido[4,3-d]pyrimidin-7-yl)-5-ethynyl-6-fluoronaphthalen-2-ol] | 5.30 to 7.00 | ≤ 0.1 | 5 to 10
8 | – | C#Cc1c(F)ccc2cc(O)cc(-c3ncc4c(N5C[C@H](N)CC(F)(F)C5)nc(OC[C@@]56CCCN5C[C@H](F)C6)nc4c3F)c12 [Compound 6-P1, 4-(4-((R)-5-Amino-3,3-difluoropiperidin-1-yl)-8-fluoro-2-(((2R,7aS)-2-fluorotetrahydro-1H-pyrrolizin-7a(5H)-yl)methoxy)pyrido[4,3-d]pyrimidin-7-yl)-5-ethynyl-6-fluoronaphthalen-2-ol] | 5.00 to 5.30 | 0.1 to 5 | 5 to 10
9 | – | C#Cc1c(F)ccc2cc(O)cc(-c3ncc4c(N5C[C@H]6C[C@@]6(N)C5)nc(OC[C@@]56CCCN5C[C@H](F)C6)nc4c3F)c12 [Compound 10, 4-(4-((1S,5R)-1-Amino-3-azabicyclo[3.1.0]hexan-3-yl)-8-fluoro-2-(((2R,7aS)-2-fluorohexahydro-1H-pyrrolizin-7a-yl)methoxy)pyrido[4,3-d]pyrimidin-7-yl)-5-ethynyl-6-fluoronaphthalen-2-ol bis(2,2,2-trifluoroacetate)] | 5.30 to 7.00 | 0.1 to 5 | 5 to 10
10 | – | C#Cc1c(F)ccc2cc(O)cc(-c3ncc4c(N5[C@@H]6CC[C@H]5[C@H](F)[C@@H](N)C6)nc(OC[C@@]56CCCN5C[C@H](F)C6)nc4c3F)c12 [Compound 25, 4-(4-((1S,2R,3S,5R)-3-Amino-2-fluoro-8-azabicyclo[3.2.1]octan-8-yl)-8-fluoro-2-(((2R,7aS)-2-fluorohexahydro-1H-pyrrolizin-7a-yl)methoxy)pyrido[4,3-d]pyrimidin-7-yl)-5-ethynyl-6-fluoronaphthalen-2-ol] | 5.60 | 1 | 5 to 10
11 | – | [2H]C#Cc1c(F)ccc2cc(O)cc(-c3nc(Cl)c4c(N5C[C@H]6CC[C@@H](C5)N6)nc(OC[C@@]56CCCN5C[C@H](F)C6)nc4c3F)c12 [Compound 28, 4-(4-((1R,5S)-3,8-Diazabicyclo[3.2.1]octan-3-yl)-5-chloro-8-fluoro-2-(((2R,7aS)-2-fluorotetrahydro-1H-pyrrolizin-7a(5H)-yl)methoxy)pyrido[4,3-d]pyrimidin-7-yl)-5-(ethynyl-d)-6-fluoronaphthalen-2-ol hydrochloride] | 8.22 | 0.001 | –
12 | – | Cc1cc(N)nc(-c2nc(F)c3c(N4C[C@H]5CC[C@@H](C4)N5)nc(OC[C@@]45CCCN4C[C@H](F)C5)nc3c2F)c1C(F)(F)F [Compound 18, 6-(4-((1R,5S)-3,8-Diazabicyclo[3.2.1]octan-3-yl)-5,8-difluoro-2-(((2R,7aS)-2-fluorohexahydro-1H-pyrrolizin-7a-yl)methoxy)pyrido[4,3-d]pyrimidin-7-yl)-4-methyl-5-(trifluoromethyl)pyridin-2-amine bis(2,2,2-trifluoroacetate)] | 5.00 to 5.30 | 0.1 to 5 | 5 to 10

Reference: US20240368192A1, “Nitrogen-Containing Heterocyclic Compound, and Preparation Method Therefor, Intermediate Thereof, and Application Thereof” (Shanghai Allist Pharmaceuticals Co., Ltd., priority 2021, published 2024)
